Reference: ChEMBL document CHEMBL4251578, “Design, synthesis and biological evaluation of novel 2-aminobenzamides containing dithiocarbamate moiety as histone deacetylase inhibitors and potent antitumor agents” (Eur J Med Chem, 2018)
The source made the active and inactive calls. No cut-off for these calls is given here.

Assays:
SMMC-7721 [1] = assay: Cell cycle arrest in human SMMC7721 cells assessed as accumulation of cells at G0/G1 phase at 1 umol/L after 72 hrs by propidium iodide staining-based flow cytometric analysis (reference value: 80.65%); type: functional
SMMC-7721 [2] = assay: Induction of apoptosis in human SMMC7721 cells assessed as late apoptotic cells at 1 umol/L after 72 hrs by Alexa Fluor 488 Annexin/propidium iodide staining-based flow cytometric analysis (reference value: 0.29%); type: functional
SMMC-7721 [3] = assay: Induction of apoptosis in human SMMC7721 cells assessed as viable cells at 0.125 umol/L after 72 hrs by Alexa Fluor 488 Annexin/propidium iodide staining-based flow cytometric analysis (reference value: 97.14%); type: functional; settings: SMMC-7721, 72 h, read-out: Activity
SMMC-7721 [4] = assay: Induction of apoptosis in human SMMC7721 cells assessed as viable cells at 1 umol/L after 72 hrs by Alexa Fluor 488 Annexin/propidium iodide staining-based flow cytometric analysis (reference value: 97.14%); type: functional; settings: SMMC-7721, 72 h, read-out: Activity
SMMC-7721 [5] = assay: Induction of apoptosis in human SMMC7721 cells assessed as early apoptotic cells at 4 umol/L after 72 hrs by Alexa Fluor 488 Annexin/propidium iodide staining-based flow cytometric analysis (reference value: 0.09%); type: functional
HeLa [6] = assay: Antiproliferative activity against human HeLa cells after 72 hrs by CCK-8 assay; type: functional, cell-based
SMMC-7721 [7] = assay: Induction of apoptosis in human SMMC7721 cells assessed as viable cells at 4 umol/L after 72 hrs by Alexa Fluor 488 Annexin/propidium iodide staining-based flow cytometric analysis (reference value: 97.14%); type: functional; settings: SMMC-7721, 72 h, read-out: Activity
SMMC-7721 [8] = assay: Induction of apoptosis in human SMMC7721 cells assessed as late apoptotic cells at 0.125 umol/L after 72 hrs by Alexa Fluor 488 Annexin/propidium iodide staining-based flow cytometric analysis (reference value: 0.29%); type: functional
SMMC-7721 [9] = assay: Cell cycle arrest in human SMMC7721 cells assessed as accumulation of cells at G0/G1 phase at 4 umol/L after 72 hrs by propidium iodide staining-based flow cytometric analysis (reference value: 80.65%); type: functional
MGC-803 [10] = assay: Antiproliferative activity against human MGC803 cells after 72 hrs by CCK-8 assay; type: functional, cell-based; settings: MGC-803, 72 h
SMMC-7721 [11] = assay: Induction of apoptosis in human SMMC7721 cells assessed as early apoptotic cells at 1 umol/L after 72 hrs by Alexa Fluor 488 Annexin/propidium iodide staining-based flow cytometric analysis (reference value: 0.09%); type: functional
SMMC-7721 [12] = assay: Cell cycle arrest in human SMMC7721 cells assessed as accumulation of cells at S phase at 1 umol/L after 72 hrs by propidium iodide staining-based flow cytometric analysis (reference value: 5.21%); type: functional
HeLa [13] = assay: Antiproliferative activity against human HeLa cells at 8 uM after 72 hrs by CCK-8 assay relative to control; type: functional
MGC-803 [14] = assay: Antiproliferative activity against human MGC803 cells at 8 uM after 72 hrs by CCK-8 assay relative to control; type: functional; settings: MGC-803, 72 h
NCI-H1299 = assay: Antiproliferative activity against human NCI-H1299 cells after 72 hrs by CCK-8 assay; type: functional, cell-based; settings: NCI-H1299, 72 h
A-375 [15] = assay: Antiproliferative activity against human A375 cells after 72 hrs by CCK-8 assay; type: functional, cell-based; settings: A-375, 72 h
SMMC-7721 [16] = assay: Induction of apoptosis in human SMMC7721 cells assessed as necrotic cells at 1 umol/L after 72 hrs by Alexa Fluor 488 Annexin/propidium iodide staining-based flow cytometric analysis (reference value: 2.48%); type: functional
MGC-803 [17] = assay: Antiproliferative activity against human MGC803 cells at 2 uM after 72 hrs by CCK-8 assay relative to control; type: functional; settings: MGC-803, 72 h
SMMC-7721 [18] = assay: Cell cycle arrest in human SMMC7721 cells assessed as accumulation of cells at G2/M phase at 4 umol/L after 72 hrs by propidium iodide staining-based flow cytometric analysis (reference value: 14.14%); type: functional
SMMC-7721 [19] = assay: Cell cycle arrest in human SMMC7721 cells assessed as accumulation of cells at G2/M phase at 0.125 umol/L after 72 hrs by propidium iodide staining-based flow cytometric analysis (reference value: 14.14%); type: functional
SMMC-7721 [20] = assay: Cell cycle arrest in human SMMC7721 cells assessed as accumulation of cells at S phase at 4 umol/L after 72 hrs by propidium iodide staining-based flow cytometric analysis (reference value: 5.21%); type: functional
SMMC-7721 [21] = assay: Induction of apoptosis in human SMMC7721 cells assessed as necrotic cells at 0.125 umol/L after 72 hrs by Alexa Fluor 488 Annexin/propidium iodide staining-based flow cytometric analysis (reference value: 2.48%); type: functional
SMMC-7721 [22] = assay: Antiproliferative activity against human SMMC7721 cells after 72 hrs by CCK-8 assay; type: functional, cell-based; settings: SMMC-7721, 72 h
SMMC-7721 [23] = assay: Cell cycle arrest in human SMMC7721 cells assessed as accumulation of cells at S phase at 0.125 umol/L after 72 hrs by propidium iodide staining-based flow cytometric analysis (reference value: 5.21%); type: functional
SMMC-7721 [24] = assay: Induction of apoptosis in human SMMC7721 cells assessed as necrotic cells at 4 umol/L after 72 hrs by Alexa Fluor 488 Annexin/propidium iodide staining-based flow cytometric analysis (reference value: 2.48%); type: functional
HeLa [25] = assay: Antiproliferative activity against human HeLa cells at 2 uM after 72 hrs by CCK-8 assay relative to control; type: functional
SMMC-7721 [26] = assay: Cell cycle arrest in human SMMC7721 cells assessed as accumulation of cells at G2/M phase at 1 umol/L after 72 hrs by propidium iodide staining-based flow cytometric analysis (reference value: 14.14%); type: functional
HCT-116 = assay: Antiproliferative activity against human HCT116 cells after 72 hrs by CCK-8 assay; type: functional, cell-based; settings: HCT-116, 72 h
SMMC-7721 [27] = assay: Induction of apoptosis in human SMMC7721 cells assessed as late apoptotic cells at 4 umol/L after 72 hrs by Alexa Fluor 488 Annexin/propidium iodide staining-based flow cytometric analysis (reference value: 0.29%); type: functional
A-375 [28] = assay: Antiproliferative activity against human A375 cells at 2 uM after 72 hrs by CCK-8 assay relative to control; type: functional; settings: A-375, 72 h
SMMC-7721 [29] = assay: Induction of apoptosis in human SMMC7721 cells assessed as early apoptotic cells at 0.125 umol/L after 72 hrs by Alexa Fluor 488 Annexin/propidium iodide staining-based flow cytometric analysis (reference value: 0.09%); type: functional
A-375 [30] = assay: Antiproliferative activity against human A375 cells at 8 uM after 72 hrs by CCK-8 assay relative to control; type: functional; settings: A-375, 72 h
Histone deacetylase 2 = Histone deacetylase 2 (Homo sapiens, UniProt Q92769); assay: Inhibition of human recombinant HDAC2 using Fluor de Lys-Green as substrate preincubated for 5 mins followed by substrate addition and measured after 1 hr by fluorescence assay
SMMC-7721 [31] = assay: Inhibition of colony formation in human SMMC7721 cells after 7 days by crystal violet staining-based assay; type: functional, cell-based

Chain of Histone deacetylase 2 (Q92769 whole entry): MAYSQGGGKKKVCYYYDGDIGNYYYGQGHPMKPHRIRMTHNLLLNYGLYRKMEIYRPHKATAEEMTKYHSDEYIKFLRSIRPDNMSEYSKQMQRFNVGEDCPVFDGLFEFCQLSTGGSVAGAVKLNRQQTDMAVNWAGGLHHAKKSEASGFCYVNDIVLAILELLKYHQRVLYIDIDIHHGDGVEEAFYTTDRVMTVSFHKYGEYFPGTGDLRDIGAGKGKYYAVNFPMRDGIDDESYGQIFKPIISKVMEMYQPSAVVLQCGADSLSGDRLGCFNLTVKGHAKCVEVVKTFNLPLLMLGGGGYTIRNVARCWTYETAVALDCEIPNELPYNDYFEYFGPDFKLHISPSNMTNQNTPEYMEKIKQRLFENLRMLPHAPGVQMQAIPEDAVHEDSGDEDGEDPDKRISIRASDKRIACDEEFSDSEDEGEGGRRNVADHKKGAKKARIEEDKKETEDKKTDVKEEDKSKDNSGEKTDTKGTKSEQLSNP

Question: Which results are given for `Nc1ccccc1NC(=O)c1ccc(CNC(=O)OCc2cccnc2)cc1` [ENTINOSTAT]?
Answer: Activity (SMMC-7721 [1]): 79.1%; Activity (SMMC-7721 [2]): 9.64%; viability at 0.125 µM (SMMC-7721 [3]): 77.5%; viability at 1 µM (SMMC-7721 [4]): 73.9%; Activity (SMMC-7721 [5]): 20.06%; IC50 (HeLa [6]): 1.6 µM; viability at 4 µM (SMMC-7721 [7]): 57.3%; Activity (SMMC-7721 [8]): 8.41%; Activity (SMMC-7721 [9]): 71.21%; IC50 (MGC-803 [10]): 4.89 µM; Activity (SMMC-7721 [11]): 11.21%; Activity (SMMC-7721 [12]): 5.35%; inhibition at 8 µM (HeLa [13]): 76.6%; inhibition at 8 µM (MGC-803 [14]): 67.2%; IC50 (NCI-H1299): 6.74 µM; IC50 (A-375 [15]): 3.67 µM; Activity (SMMC-7721 [16]): 5.22%; inhibition at 2 µM (MGC-803 [17]): 25.3%; Activity (SMMC-7721 [18]): 21.24%; Activity (SMMC-7721 [19]): 17.36%; Activity (SMMC-7721 [20]): 7.55%; Activity (SMMC-7721 [21]): 9.56%; IC50 (SMMC-7721 [22]): 5.97 µM; Activity (SMMC-7721 [23]): 4.54%; Activity (SMMC-7721 [24]): 7.47%; inhibition at 2 µM (HeLa [25]): 62.2%; Activity (SMMC-7721 [26]): 15.55%; IC50 (HCT-116): 0.47 µM; Activity (SMMC-7721 [27]): 15.13%; inhibition at 2 µM (A-375 [28]): 30.2%; Activity (SMMC-7721 [29]): 4.56%; inhibition at 8 µM (A-375 [30]): 88.7%

Question: Which results are given for `Nc1ccc(F)cc1NC(=O)c1ccc(CNC(=O)/C=C/c2cccnc2)cc1`?
Answer: Activity (SMMC-7721 [1]): 76.07%; Activity (SMMC-7721 [2]): 10.22%; viability at 0.125 µM (SMMC-7721 [3]): 78.3%; viability at 1 µM (SMMC-7721 [4]): 73.9%; Activity (SMMC-7721 [5]): 5.45%; IC50 (HeLa [6]): 11.8 µM; viability at 4 µM (SMMC-7721 [7]): 74.2%; Activity (SMMC-7721 [8]): 11.62%; Activity (SMMC-7721 [9]): 76.41%; Activity (SMMC-7721 [11]): 4.59%; Activity (SMMC-7721 [12]): 5.26%; inhibition at 8 µM (HeLa [13]): 41.4%; inhibition at 8 µM (MGC-803 [14]): 54.5%; IC50 (NCI-H1299): 16.3 µM; IC50 (A-375 [15]): 7.67 µM; Activity (SMMC-7721 [16]): 11.25%; inhibition at 2 µM (MGC-803 [17]): 7.8%; Activity (SMMC-7721 [18]): 18.05%; Activity (SMMC-7721 [19]): 17.2%; Activity (SMMC-7721 [20]): 5.54%; Activity (SMMC-7721 [21]): 4.08%; IC50 (SMMC-7721 [22]): > 26 µM; Activity (SMMC-7721 [23]): 5.71%; Activity (SMMC-7721 [24]): 3.06%; inhibition at 2 µM (HeLa [25]): 14.7%; Activity (SMMC-7721 [26]): 18.67%; IC50 (Histone deacetylase 2): 0.37 µM; Activity (SMMC-7721 [27]): 17.32%; inhibition at 2 µM (A-375 [28]): 21.3%; inhibition (SMMC-7721 [31]): Active; Activity (SMMC-7721 [29]): 6.02%; inhibition at 8 µM (A-375 [30]): 54.3%
